In publication PMC8603191, “Fragment-based design of selective GPCR ligands guided by free energy simulations” (Chemical communications (Cambridge, England), 2021):
Where “and” joins values, the source holds several entries; their conditions need not be identical. Equal values may be shown once. Entries after “also recorded” stand apart in the source; their conditions may differ.

Assays:
hA2AAR = target: hA2AAR; design: method as in ChEMBL database; conditions: ligands with < 20 HA; ref ChEMBL database; cited from earlier work
hA1AR [1] = target: hA1AR; design: method as in ChEMBL database; conditions: ligands with < 20 HA; ref ChEMBL database; cited from earlier work
hA1AR [2] = experiment: Ki values of known ligands downloaded from the ChEMBL database; assay type: binding, human; conditions: from ChEMBL Ki values hA1AR and hA2AAR
Description: Table S5. Highest affinity human A1AR ligands (with < 20 HA) in the ChEMBL database compared to compound 22.a […]
a Known A1AR and A2AAR ligands with determined Ki values were downloaded from the ChEMBL database.
Compounds with motifs found in pan-assay interference compounds16 were excluded using OpenEye Toolkits 2020.2.0 OpenEye Scientific Software, Santa Fe, NM. http://www.eyesopen.com.

human A2AAR [3] = target: T1, human A2AAR (Homo sapiens, UniProt P29274); experiment: Radioligand binding assay, displacement of [3H]ZM241385; conditions: for Free energy of binding (ΔG) A2AAR: calculated from experimental binding affinities; for ΔΔG Experimental A2AAR: based on Table S3
T1 construct: expressed in transfected cells; host or cells: HEK293 (membrane preparations)
Experimental: (§1) Radioligand binding assays. HEK293 cells expressing the human A1- or A2AARs were cultured in DMEM supplemented with 10% fetal bovine serum, 100 Units/ml penicillin, 100 µg/ml streptomycin, and 2 µmol/ml glutamine. Cells were detached from plates by scraping into cold PBS and centrifuged at 250 g for 5 min. The pellets were resuspended in ice-cold Tris HCl buffer (50 mM, pH 7.4) and then homogenized. After homogenization and suspension, cells were centrifuged at 1000 g for 10 min, and the pellet was discarded.
(§2) The suspension was then re-centrifuged at 20,000 g for 60 min at 4 °C. The pellets were resuspended in buffer containing 3 Units/ml adenosine deaminase and incubated at 37°C for 30 min. The aliquots of membrane preparations were stored at −80°C until the binding experiments. For displacement binding assays, membrane preparations (20 µg proteins/tube) were incubated at 25°C for 60 min with a final concentration of [3H]DPCPX (0.5 nM) and [3H]ZM241385 (1.0 nM) for A1- and A2AARs, respectively, in a mixture containing 50 µL of increasing concentrations of a test ligand in a total assay volume of 200 µL of 50 mM Tris HCl, pH 7.4, containing 10 mM MgCl2. Nonspecific binding was determined using 100 µM of XAC. The reaction was terminated by filtration with GF/B filters using a Brandel 24-channel harvester. Filters were placed in scintillation vials containing 5 ml of Hydrofluor scintillation buffer and counted using a PerkinElmer Tricarb 2810TR liquid scintillation counter. […]
(§3) Table S1. Binding affinities of compounds 1-10 based on displacement of [3H]DPCPX and [3H]ZM241385 at the A1AR and A2AAR, respectively.
(§4) Compound Substituent A1AR A2AAR index […]
(§5) a Ki values are expressed as means ± SEM from (2-4) independent experiments. b Free energy of binding (ΔG) calculated from experimental binding affinities (kcal/mol) / Number of heavy atoms (HA). The ligand efficiency (LE) = −ΔG/HA. c Values from Matricon et al.8
(§6) Table S3. Binding affinities of compounds 11-26 based on displacement of [3H]DPCPX and […]
(§7) a K values are expressed as means ± SEM from (2-4) independent experiments.
(§8) Free energy of binding (ΔG) calculated from experimental binding affinities (kcal/mol) / Number of heavy

human A1AR [4] = experiment: Radioligand binding assay, displacement of [3H]DPCPX; conditions: A1AR versus A2AAR; for A1AR selectivity index: from Ki values; for selectivity for the A1AR: Fig. 1
Experimental: as §1, §2, §3, §4, §5, §6, §7, §8

human A1AR [5] = target: T2, human A1AR (Homo sapiens, UniProt P30542); experiment: as above; conditions: for Free energy of binding (ΔG) A1AR: calculated from experimental binding affinities; for ΔΔG Experimental A1AR: based on Table S3
T2 construct: expressed in transfected cells; host or cells: HEK293 (membrane preparations)
T2 sequence (P30542 1-326): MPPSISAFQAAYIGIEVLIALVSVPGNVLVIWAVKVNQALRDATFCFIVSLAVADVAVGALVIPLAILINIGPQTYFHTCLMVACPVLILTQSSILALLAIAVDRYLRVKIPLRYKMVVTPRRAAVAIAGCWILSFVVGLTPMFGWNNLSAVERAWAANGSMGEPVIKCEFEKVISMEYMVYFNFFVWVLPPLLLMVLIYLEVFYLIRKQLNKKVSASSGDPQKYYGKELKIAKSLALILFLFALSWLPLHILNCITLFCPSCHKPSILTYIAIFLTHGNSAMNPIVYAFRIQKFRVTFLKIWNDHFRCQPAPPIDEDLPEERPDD
Experimental: as §1, §2, §3, §4, §5, §6, §7, §8

human A2AAR [6] = target: T1, human A2AAR; experiment: cAMP functional assay; assay type: cell-based; conditions: HEK293 cells, intracellular cAMP, n=3
Experimental: (§9) Functional assays measuring intracellular concentrations of cAMP were performed at the human A1AR and A2AAR to determine the efficacy of compounds 22 and 26. […]
cAMP assay. HEK293 cells were grown in DMEM supplemented with 10% fetal bovine serum, 100 Units/ml penicillin, 100 µg/ml streptomycin, and 2 µmol/ml glutamine. After 24 hours, cells were treated with assay buffer containing rolipram (10 µM), PSB603 (1 […]
The reaction was terminated upon removal of the supernatant, and addition of 100 µl Tween-20 (0.3%). Intracellular cAMP levels […]
(§10) were measured with an ALPHAScreen cAMP assay kit following the instructions from the manufacturer (PerkinElmer).

human A1AR [7] = target: T2, human A1AR; experiment: cAMP functional assay; assay type: cell-based; conditions: HEK293 cells, intracellular cAMP, n=3
Experimental: as §9
cAMP assay. HEK293 cells were grown in DMEM supplemented with 10% fetal bovine serum, 100 Units/ml penicillin, 100 µg/ml streptomycin, and 2 µmol/ml glutamine. After 24 hours, cells were treated with assay buffer containing rolipram (10 µM), PSB603 (1 µM) and adenosine deaminase (3 units/ml) for 30 min followed by the addition of antagonists for 20 min and subsequent addition of agonists and incubated for another 20 min. For the A1AR assay, after incubation with agonist for 20 min, forskolin (10 µM) was added and incubated for an additional 15 min. The reaction was terminated upon removal of the supernatant, and addition of 100 µl Tween-20 (0.3%). Intracellular cAMP levels […]
as §10

[8] = displacement of [3H]ZM241385, means ± SEM from 2-4 independent experiments
[9] = displacement of [3H]DPCPX, means ± SEM from 2-4 independent experiments
[10] = radioligand binding, Fig. 1, Table S5

T1 sequence (P29274 whole entry): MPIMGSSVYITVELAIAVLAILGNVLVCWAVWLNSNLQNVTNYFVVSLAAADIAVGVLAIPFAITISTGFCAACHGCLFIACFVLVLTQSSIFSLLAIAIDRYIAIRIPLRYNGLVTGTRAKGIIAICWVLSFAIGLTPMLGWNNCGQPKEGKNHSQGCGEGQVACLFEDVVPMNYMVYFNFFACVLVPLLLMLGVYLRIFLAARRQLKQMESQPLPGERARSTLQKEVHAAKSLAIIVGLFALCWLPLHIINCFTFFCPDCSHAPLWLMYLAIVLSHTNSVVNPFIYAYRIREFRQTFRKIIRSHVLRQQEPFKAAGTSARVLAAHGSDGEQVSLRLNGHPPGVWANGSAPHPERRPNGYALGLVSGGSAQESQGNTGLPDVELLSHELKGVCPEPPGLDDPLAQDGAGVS

| Compound | Ki (hA2AAR) | Ki (hA1AR [1]) | A1AR selectivity (hA1AR [2]) | Free energy of binding (ΔG) A2AAR (human A2AAR [3]) | Ki (human A2AAR [3]; [8]) | A1AR selectivity index (human A1AR [4]) | Free energy of binding (ΔG) A1AR (human A1AR [5]) | Ki (human A1AR [5]; [9]) | ΔΔG Experimental A2AAR (human A2AAR [3]; reference compound 9) | ΔΔG Experimental A1AR (human A1AR [5]; reference compound 9) | further results |
| --- | --- | --- | --- | --- | --- | --- | --- | --- | --- | --- | --- |
| Cc1nc(N)c2nc(-n3nccn3)n(C)c2n1 [CHEMBL194290] | 70.4 nM | 10.4 nM | 6.8 | – | – | – | – | – | – | – | – |
| Cn1c(-n2nccn2)nc2c(N)ncnc21 [CHEMBL194728] | 46.3 nM | 0.4 nM | 115.7 | – | – | – | – | – | – | – | – |
| Nc1nc2ccccc2n2nc(-c3ccco3)nc12 [CHEMBL261345] | 11.2 nM | 5.6 nM | 2.0 | – | – | – | – | – | – | – | – |
| Oc1nc2ccccc2n2nc(-c3cccs3)nc12 [CHEMBL328437] | – | 2 nM | – | – | – | – | – | – | – | – | – |
| Cn1ncc2nc(N)n3nc(-c4ccco4)nc3c21 [CHEMBL1935752] | 3.6 nM | 10 nM | 0.4 | – | – | – | – | – | – | – | – |
| COc1cccc2sc(NC(=O)C(C)(C)C)nc12 [Compound 19] | – | – | – | -9.2 kcal/mol | 199 ± 70 nM | 1.5 | -9.4 kcal/mol | 133 ± 10 nM | – | – | ΔΔG Experimental A2AAR (human A2AAR [3]; reference compound 5): –1.2 ± 0.2 kcal/mol; ΔΔG Experimental A1AR (human A1AR [5]; reference compound 5): –0.5 ± 0.1 kcal/mol |
| CC1(C(=O)Nc2nc3ccccc3s2)CCCC1 [Compound 20] | – | – | – | -8.6 kcal/mol | 572 ± 64 nM | – | -9.6 kcal/mol | – | –0.6 ± 0.1 kcal/mol | –1.1 ± 0.1 kcal/mol | selectivity for the A1AR (human A1AR [4]): 6 fold; Ki (human A1AR [5]; [10]): 95 nM |
| CC1(C(=O)Nc2nc3cc(Cl)ccc3s2)CCCC1 [Compound 21] | – | – | – | -9.1 kcal/mol | 252 ± 89 nM | 11.0 | -10.5 kcal/mol | 23 ± 6 nM | –1.1 ± 0.2 kcal/mol | –2.0 ± 0.2 kcal/mol | – |
| CC1(C(=O)Nc2nc3cc(Br)ccc3s2)CCCC1 [Compound 22] | – | – | – | -8.8 kcal/mol | 384 ± 82 nM | 38.4 | -11.0 kcal/mol | – | –0.8 ± 0.1 kcal/mol | –2.4 ± 0.1 kcal/mol | efficacy in cAMP assay at A2AAR (human A2AAR [6]): antagonists; also recorded: Antagonism; selectivity for the A1AR (human A1AR [4]): 38 fold; improvement of A1AR affinity (human A1AR [5]; compared to compound 1): > 1000 fold; Ki (human A1AR [5]; [10]): 10 nM; efficacy in cAMP assay at A1AR (human A1AR [7]): antagonists; also recorded: Antagonism |
| Cc1ccc2sc(NC(=O)C3(C)CCCC3)nc2c1 [Compound 23] | – | – | – | -8.6 kcal/mol | 561 ± 109 nM | 9.8 | -9.9 kcal/mol | 57 ± 15 nM | –0.6 ± 0.1 kcal/mol | –1.4 ± 0.2 kcal/mol | – |
| CCc1ccc2sc(NC(=O)C3(C)CCCC3)nc2c1 [Compound 24] | – | – | – | -7.8 kcal/mol | 2150 ± 90 nM | 22.4 | -9.6 kcal/mol | 96 ± 13 nM | 0.2 ± 0.1 kcal/mol | –1.1 ± 0.1 kcal/mol | – |
| CC1(C(=O)Nc2nc3cc(C#N)ccc3s2)CCCC1 [Compound 25] | – | – | – | -7.9 kcal/mol | 1780 ± 740 nM | 27.8 | -9.9 kcal/mol | 64 ± 6 nM | 0.1 ± 0.3 kcal/mol | –1.3 ± 0.1 kcal/mol | – |
| COc1cccc2sc(NC(=O)c3ccccc3)nc12 [Compound 26] | – | – | – | -9.6 kcal/mol | – | 0.1 | -8.1 kcal/mol | 1330 nM and 1300 nM | – | – | efficacy in cAMP assay at A2AAR (human A2AAR [6]): antagonists; also recorded: Antagonism; A2AAR selectivity (human A2AAR [3]; A2AAR versus A1AR): 13 fold; Ki (human A2AAR [3]; radioligand binding, Table S5): 106 nM; ΔΔG Experimental A2AAR (human A2AAR [3]; reference compound 10): –0.8 ± 0.1 kcal/mol; ΔΔG Experimental A1AR (human A1AR [5]; reference compound 10): 0.4 ± 0.3 kcal/mol; efficacy in cAMP assay at A1AR (human A1AR [7]): antagonists; also recorded: Antagonism |
